Measurements reported in ChEMBL document CHEMBL3525908, “Chronic doxorubicin cardiotoxicity modulates cardiac cytochrome P450-mediated arachidonic acid metabolism in rats” (Drug Metab Dispos, 2012).

Key:
Rattus norvegicus [1] = assay: Toxicity in Sprague-Dawley rat assessed as CYP4F4 gene expression in liver administered as cumulative dose of 15 mg/kg, ip divided into 6 injections for 2 weeks followed by compound washout period of 14 days by RT-PCR analysis relative to control; assay type: organism-based; set-up: dose 15 mg/kg, route intraperitoneal; settings: in vivo, 336 h
Rattus norvegicus [2] = assay: Toxicity in Sprague-Dawley rat assessed as CYP1A1 gene expression in kidney administered as cumulative dose of 15 mg/kg, ip divided into 6 injections for 2 weeks followed by compound washout period of 14 days by RT-PCR analysis relative to control; assay type: organism-based; set-up: dose 15 mg/kg, route intraperitoneal; settings: in vivo, 336 h
Rattus norvegicus [3] = assay: Induction of omega-1 hydroxylase-mediated arachidonic acid metabolism in Sprague-Dawley rat heart microsomes assessed as 19-HETE formation administered as cumulative dose of 15 mg/kg, ip divided into 6 injections for 2 weeks followed by compound washout period of 14 days by LC-ESI-MS analysis relative to control; assay type: ADME, organism-based; set-up: dose 15 mg/kg, route intraperitoneal; settings: 336 h
Rattus norvegicus [4] = assay: Cardiotoxicity in Sprague-Dawley rat assessed as increase in sEH activity in heart cytosol administered as cumulative dose of 15 mg/kg, ip divided into 6 injections for 2 weeks followed by compound washout period of 14 days by RT-PCR analysis relative to control; assay type: toxicity, organism-based; set-up: dose 15 mg/kg, route intraperitoneal; settings: 336 h
H9c2 [5] = assay: Cytotoxicity against rat H9c2 cells assessed as reduction in BNP mRNA expression at 1 uM after 6 hrs in presence of t-AUCB; assay type: cell-based; settings: h9c2, 6 h
H9c2 [6] = assay: Cytotoxicity against rat H9c2 cells assessed as reduction in ANP mRNA expression at 1 uM after 6 hrs; assay type: cell-based; settings: h9c2, 6 h
H9c2 [7] = assay: Cytotoxicity against rat H9c2 cells assessed as reduction in BNP mRNA expression at 1 uM after 6 hrs; assay type: cell-based; settings: h9c2, 6 h
CYP4F5 [8] = assay: Cardiotoxicity in Sprague-Dawley rat assessed as increase in CYP4F5 gene expression level administered as cumulative dose of 15 mg/kg, ip divided into 6 injections for 2 weeks followed by compound washout period of 14 days by RT-PCR analysis relative to control; assay type: toxicity, organism-based; set-up: dose 15 mg/kg, route intraperitoneal; settings: heart
Rattus norvegicus [9] = assay: (§1) Induction of CYP450-mediated arachidonic acid metabolism in Sprague-Dawley rat heart microsomes assessed as 5,6-EET formation administered as cumulative dose of 15 mg/kg, ip divided into 6 injections for 2 weeks followed by compound washout period of 14 days by LC-ESI-MS analysis relative to control; assay type: ADME, organism-based; set-up: dose 15 mg/kg, route intraperitoneal; settings: 336 h
Rattus norvegicus [10] = assay: Induction of CYP450-mediated arachidonic acid metabolism in Sprague-Dawley rat heart microsomes assessed as 8,9-EET formation administered as cumulative dose of 15 mg/kg, ip divided into 6 injections for 2 weeks followed by compound washout period of 14 days by LC-ESI-MS analysis relative to control; assay type: ADME, organism-based; set-up: dose 15 mg/kg, route intraperitoneal; settings: 336 h
Rattus norvegicus [11] = assay: as §1, with “11,12-EET” for “5,6-EET”; assay type: ADME, organism-based; set-up: dose 15 mg/kg, route intraperitoneal; settings: 336 h
Rattus norvegicus [12] = assay: as §1, with “14,15-EET” for “5,6-EET”; assay type: ADME, organism-based; set-up: dose 15 mg/kg, route intraperitoneal; settings: 336 h
Rattus norvegicus [13] = assay: as §1, with “epoxygenase-mediated” for “CYP450-mediated”, “EET/DHET” for “5,6-EET”; assay type: ADME, organism-based; set-up: dose 15 mg/kg, route intraperitoneal; settings: 336 h
Rattus norvegicus [14] = assay: Toxicity in Sprague-Dawley rat assessed as sEH gene expression in liver administered as cumulative dose of 15 mg/kg, ip divided into 6 injections for 2 weeks followed by compound washout period of 14 days by RT-PCR analysis; assay type: organism-based; set-up: dose 15 mg/kg, route intraperitoneal; settings: in vivo, 336 h
Rattus norvegicus [15] = assay: Toxicity in Sprague-Dawley rat assessed as induction of TNF-alpha gene expression in liver administered as cumulative dose of 15 mg/kg, ip divided into 6 injections for 2 weeks followed by compound washout period of 14 days by RT-PCR analysis relative to control; assay type: organism-based; set-up: dose 15 mg/kg, route intraperitoneal; settings: 336 h
Rattus norvegicus [16] = assay: Toxicity in Sprague-Dawley rat assessed as induction of IL-6 gene expression in liver administered as cumulative dose of 15 mg/kg, ip divided into 6 injections for 2 weeks followed by compound washout period of 14 days by RT-PCR analysis relative to control; assay type: organism-based; set-up: dose 15 mg/kg, route intraperitoneal; settings: 336 h
CYP1A1 = assay: Toxicity in Sprague-Dawley rat assessed as induction of CYP1A1 gene expression in liver administered as cumulative dose of 15 mg/kg, ip divided into 6 injections for 2 weeks followed by compound washout period of 14 days by RT-PCR analysis relative to control; assay type: organism-based; set-up: dose 15 mg/kg, route intraperitoneal
CYP1B1 = assay: Toxicity in Sprague-Dawley rat assessed as induction of CYP1B1 gene expression in liver administered as cumulative dose of 15 mg/kg, ip divided into 6 injections for 2 weeks followed by compound washout period of 14 days by RT-PCR analysis relative to control; assay type: organism-based; set-up: dose 15 mg/kg, route intraperitoneal
CYP4F5 [17] = assay: Toxicity in Sprague-Dawley rat assessed as induction of CYP4F5 gene expression in liver administered as cumulative dose of 15 mg/kg, ip divided into 6 injections for 2 weeks followed by compound washout period of 14 days by RT-PCR analysis relative to control; assay type: organism-based; set-up: dose 15 mg/kg, route intraperitoneal
Rattus norvegicus [18] = assay: Toxicity in Sprague-Dawley rat assessed as inhibition of CYP2B1 gene expression in liver administered as cumulative dose of 15 mg/kg, ip divided into 6 injections for 2 weeks followed by compound washout period of 14 days by RT-PCR analysis relative to control; assay type: organism-based; set-up: dose 15 mg/kg, route intraperitoneal; settings: in vivo, 336 h
Rattus norvegicus [19] = assay: Toxicity in Sprague-Dawley rat assessed as inhibition of CYP2B2 gene expression in liver administered as cumulative dose of 15 mg/kg, ip divided into 6 injections for 2 weeks followed by compound washout period of 14 days by RT-PCR analysis relative to control; assay type: organism-based; set-up: dose 15 mg/kg, route intraperitoneal; settings: in vivo, 336 h
Rattus norvegicus [20] = assay: Toxicity in Sprague-Dawley rat assessed as inhibition of CYP2C11 gene expression in liver administered as cumulative dose of 15 mg/kg, ip divided into 6 injections for 2 weeks followed by compound washout period of 14 days by RT-PCR analysis relative to control; assay type: organism-based; set-up: dose 15 mg/kg, route intraperitoneal; settings: in vivo, 336 h
CYP2E1 = assay: Cardiotoxicity in Sprague-Dawley rat assessed as increase in CYP2E1 gene expression level administered as cumulative dose of 15 mg/kg, ip divided into 6 injections for 2 weeks followed by compound washout period of 14 days by RT-PCR analysis relative to control; assay type: toxicity, organism-based; set-up: dose 15 mg/kg, route intraperitoneal; settings: heart
Rattus norvegicus [21] = assay: Cardiotoxicity in Sprague-Dawley rat assessed as increase in Bax gene expression level administered as cumulative dose of 15 mg/kg, ip divided into 6 injections for 2 weeks followed by compound washout period of 14 days by RT-PCR analysis relative to control; assay type: toxicity, organism-based; set-up: dose 15 mg/kg, route intraperitoneal; settings: in vivo, 336 h
Rattus norvegicus [22] = assay: Cardiotoxicity in Sprague-Dawley rat assessed as increase in beta-MHC gene expression level administered as cumulative dose of 15 mg/kg, ip divided into 6 injections for 2 weeks followed by compound washout period of 14 days by RT-PCR analysis relative to control; assay type: toxicity, organism-based; set-up: dose 15 mg/kg, route intraperitoneal; settings: 336 h
Rattus norvegicus [23] = assay: Cardiotoxicity in Sprague-Dawley rat assessed as increase in CYP1B1 gene expression level administered as cumulative dose of 15 mg/kg, ip divided into 6 injections for 2 weeks followed by compound washout period of 14 days by RT-PCR analysis relative to control; assay type: toxicity, organism-based; set-up: dose 15 mg/kg, route intraperitoneal; settings: in vivo, 336 h
Rattus norvegicus [24] = assay: Cardiotoxicity in Sprague-Dawley rat assessed as increase in CYP2J3 gene expression level administered as cumulative dose of 15 mg/kg, ip divided into 6 injections for 2 weeks followed by compound washout period of 14 days by RT-PCR analysis relative to control; assay type: toxicity, organism-based; set-up: dose 15 mg/kg, route intraperitoneal; settings: in vivo, 336 h

In the case of `COc1cccc2c1C(=O)c1c(O)c3c(c(O)c1C2=O)C[C@@](O)(C(=O)CO)C[C@@H]3O[C@H]1C[C@H](N)[C@H](O)[C@H](C)O1` [DOXORUBICIN], the Activity (Rattus norvegicus [1]) is reported as “Non-toxic”, the Activity (Rattus norvegicus [2]) is reported as “Non-toxic” and the Activity (Rattus norvegicus [3]) is reported as “Non-toxic”. For the same molecule, the Ratio (Rattus norvegicus [4]) was 1.3, the Activity (H9c2 [5]) was “Toxic” and the Activity (H9c2 [6]) was “Non-toxic”. The Activity (H9c2 [7]) was “Non-toxic”, the fold induction at 336 h (CYP4F5 [8]) was 2 and the Activity (Rattus norvegicus [9]) was “Active”. The Activity (Rattus norvegicus [10]) was “Active”, the Activity (Rattus norvegicus [11]) was “Active” and the Activity (Rattus norvegicus [12]) was “Active”. The Activity (Rattus norvegicus [13]) was “Toxic”, the Activity (Rattus norvegicus [14]) was “Non-toxic” and the fold induction at 15 mg/kg (Rattus norvegicus [15]) was 2.2. It also gave a fold induction at 15 mg/kg (Rattus norvegicus [16]) of 4.5, a fold induction at 336 h (CYP1A1) of 2.8 and a fold induction at 336 h (CYP1B1) of 2.5. It also gave a fold induction at 336 h (CYP4F5 [17]) of 1.8, a Ratio (Rattus norvegicus [18]) of 0.5 and a Ratio (Rattus norvegicus [19]) of 0.5. For the same molecule, the Ratio (Rattus norvegicus [20]) was 0.7, the fold induction at 336 h (CYP2E1) was 1.8 and the Ratio (Rattus norvegicus [21]) was 1.9. The fold induction at 15 mg/kg (Rattus norvegicus [22]) was 2.7, the Activity (Rattus norvegicus [23]) was “Non-toxic” and the Activity (Rattus norvegicus [24]) was “Non-toxic”.
